The source made the active and inactive calls.

Test [1] deals with 26S proteasome non-ATPase regulatory subunit 14 (Homo sapiens, UniProt O00487). Put plainly: inhibition of proteasome subunit RPN11 – biochemical, fluorescence polarization, uHTS hits, confirmation (AID 602368). The test is classed as functional. (In fluorescence polarisation assays a small probe gives low polarisation when free and higher when bound to something large.)
The target in test [2] is T1, DNA repair protein RAD52 homolog (Homo sapiens, UniProt P43351).
T1 sequence (P43351 whole entry): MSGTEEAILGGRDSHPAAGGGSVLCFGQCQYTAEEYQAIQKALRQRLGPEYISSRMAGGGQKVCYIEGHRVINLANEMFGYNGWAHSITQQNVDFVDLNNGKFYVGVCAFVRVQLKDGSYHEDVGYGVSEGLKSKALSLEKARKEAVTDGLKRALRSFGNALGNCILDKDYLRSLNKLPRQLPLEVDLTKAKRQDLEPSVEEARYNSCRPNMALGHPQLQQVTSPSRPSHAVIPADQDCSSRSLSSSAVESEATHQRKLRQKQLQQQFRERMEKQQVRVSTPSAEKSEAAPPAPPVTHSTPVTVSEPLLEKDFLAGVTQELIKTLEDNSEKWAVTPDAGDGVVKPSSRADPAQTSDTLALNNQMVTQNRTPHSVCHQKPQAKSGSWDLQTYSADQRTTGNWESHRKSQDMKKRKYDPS
In kind it is functional, biochemical.

The target of test [3] is E3 ubiquitin-protein ligase XIAP (Homo sapiens, UniProt P98170). As to the kind of experiment: Counter Screen using XIAP-Bir3 for Chemical Antagonists of Bir1/2 domains of IAP-family anti-apoptotic proteins. [Related pubchem assays (depositor defined):AID1018, AID1449, AID1514, AID1638, AID1749, AID1750, AID488957, AID488963].
Sequence of E3 ubiquitin-protein ligase XIAP (P98170 whole entry): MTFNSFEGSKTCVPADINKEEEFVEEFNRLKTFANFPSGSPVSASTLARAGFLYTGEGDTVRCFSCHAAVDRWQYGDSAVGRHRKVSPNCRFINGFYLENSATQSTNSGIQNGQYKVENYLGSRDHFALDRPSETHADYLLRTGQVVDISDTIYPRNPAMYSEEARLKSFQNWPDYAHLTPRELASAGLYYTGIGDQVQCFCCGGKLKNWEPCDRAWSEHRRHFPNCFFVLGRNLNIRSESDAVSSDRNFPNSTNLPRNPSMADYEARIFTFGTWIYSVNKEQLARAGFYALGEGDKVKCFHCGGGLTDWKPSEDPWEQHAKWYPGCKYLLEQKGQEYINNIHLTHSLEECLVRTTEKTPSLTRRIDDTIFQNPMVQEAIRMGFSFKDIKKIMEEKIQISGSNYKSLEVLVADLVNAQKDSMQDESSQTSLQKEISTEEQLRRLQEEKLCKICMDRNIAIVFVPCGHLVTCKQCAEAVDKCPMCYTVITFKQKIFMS
Test [4] has as its target T2, Apoptotic protease-activating factor 1 (Homo sapiens, UniProt O14727).
T2 sequence (O14727 whole entry): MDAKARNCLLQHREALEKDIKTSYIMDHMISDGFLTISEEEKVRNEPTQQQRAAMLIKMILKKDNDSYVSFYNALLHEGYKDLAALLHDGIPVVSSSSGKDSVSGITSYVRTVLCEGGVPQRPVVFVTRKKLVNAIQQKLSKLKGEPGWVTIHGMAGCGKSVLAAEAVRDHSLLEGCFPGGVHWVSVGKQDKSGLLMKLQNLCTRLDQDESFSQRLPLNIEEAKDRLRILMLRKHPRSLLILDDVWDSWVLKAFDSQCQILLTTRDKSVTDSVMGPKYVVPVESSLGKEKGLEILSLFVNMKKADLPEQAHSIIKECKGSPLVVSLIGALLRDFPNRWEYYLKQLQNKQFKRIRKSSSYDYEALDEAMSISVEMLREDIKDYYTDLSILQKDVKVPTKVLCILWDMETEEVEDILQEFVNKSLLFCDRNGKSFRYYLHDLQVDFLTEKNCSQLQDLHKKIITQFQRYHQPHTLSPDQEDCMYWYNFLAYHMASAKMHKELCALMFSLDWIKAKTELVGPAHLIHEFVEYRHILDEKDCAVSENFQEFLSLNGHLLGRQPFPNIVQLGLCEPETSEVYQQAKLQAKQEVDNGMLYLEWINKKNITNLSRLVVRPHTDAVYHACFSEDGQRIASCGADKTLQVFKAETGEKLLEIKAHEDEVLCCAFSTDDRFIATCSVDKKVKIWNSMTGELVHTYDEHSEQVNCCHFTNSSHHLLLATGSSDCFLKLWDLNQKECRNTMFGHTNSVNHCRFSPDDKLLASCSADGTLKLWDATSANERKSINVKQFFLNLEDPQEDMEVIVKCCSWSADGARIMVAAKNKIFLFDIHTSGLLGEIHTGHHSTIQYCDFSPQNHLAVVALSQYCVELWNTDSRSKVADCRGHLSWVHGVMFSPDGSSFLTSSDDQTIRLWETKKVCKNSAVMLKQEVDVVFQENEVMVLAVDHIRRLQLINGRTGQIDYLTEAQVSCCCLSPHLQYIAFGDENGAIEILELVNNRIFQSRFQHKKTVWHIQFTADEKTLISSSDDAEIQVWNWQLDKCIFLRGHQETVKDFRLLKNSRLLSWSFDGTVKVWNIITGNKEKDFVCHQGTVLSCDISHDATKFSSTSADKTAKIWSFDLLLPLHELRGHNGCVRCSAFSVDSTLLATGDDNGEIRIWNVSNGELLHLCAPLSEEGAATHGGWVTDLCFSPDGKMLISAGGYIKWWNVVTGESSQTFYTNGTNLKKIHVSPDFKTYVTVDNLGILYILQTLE
Put plainly: SAR analysis of small molecule inhibitors of Apaf-1 in a Fluorescent assay. In kind it is functional. To be noted: read-out: IC50_Mean.

For test [5], the target named is T3, Rac GTPase-activating protein 1 (Homo sapiens, UniProt Q9H0H5).
T3 sequence (Q9H0H5 whole entry): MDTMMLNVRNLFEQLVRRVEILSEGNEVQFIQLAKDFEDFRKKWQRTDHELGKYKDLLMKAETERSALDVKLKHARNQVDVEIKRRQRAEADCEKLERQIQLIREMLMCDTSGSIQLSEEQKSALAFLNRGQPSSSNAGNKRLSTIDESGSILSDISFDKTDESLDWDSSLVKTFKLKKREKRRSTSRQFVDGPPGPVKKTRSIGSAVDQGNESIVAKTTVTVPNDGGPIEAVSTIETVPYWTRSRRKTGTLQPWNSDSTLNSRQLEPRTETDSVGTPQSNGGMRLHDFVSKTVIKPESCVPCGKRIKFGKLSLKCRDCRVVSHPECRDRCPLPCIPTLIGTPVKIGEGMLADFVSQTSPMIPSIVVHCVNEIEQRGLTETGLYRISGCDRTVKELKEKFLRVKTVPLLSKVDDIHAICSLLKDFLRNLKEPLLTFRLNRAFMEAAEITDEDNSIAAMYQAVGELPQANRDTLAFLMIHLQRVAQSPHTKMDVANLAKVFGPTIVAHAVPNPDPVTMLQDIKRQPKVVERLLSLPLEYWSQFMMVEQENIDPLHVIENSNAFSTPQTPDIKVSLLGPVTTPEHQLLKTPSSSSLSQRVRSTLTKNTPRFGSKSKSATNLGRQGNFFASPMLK
As to the kind of experiment: blockers of MgcRacGAP-driven Rac1 GTP hydrolysis – biochemical, ADP Hunter fluorescence, primary and confirmatory, confirmation (AID 624330). The test is classed as functional.

Test [6] concerns the target 72 kDa type IV collagenase (Homo sapiens, UniProt P08253). As to the kind of experiment: Dose Response validation of uHTS RPN11 inhibitor hits using a MMP-2 Fluorescence assay. The test is classed as functional.
The target in test [7] is T4, Ubiquitin-conjugating enzyme E2 N (Homo sapiens, UniProt P61088).
T4 sequence (P61088 whole entry): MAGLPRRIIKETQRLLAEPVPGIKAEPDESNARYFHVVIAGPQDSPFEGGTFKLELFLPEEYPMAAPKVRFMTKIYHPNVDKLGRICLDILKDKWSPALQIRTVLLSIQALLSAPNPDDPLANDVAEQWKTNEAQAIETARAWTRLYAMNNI
In kind it is functional.

The target of test [8] is T5, SUMO-activating enzyme (Homo sapiens, UniProt Q9UBT2). As to the kind of experiment: blockers of SAE1/SAE2–UBC9 SUMO transfer – biochemical, HTRF, uHTS, primary screen (AID 2006). The test is classed as protein-complex assay.
T5 sequence (Q9UBE0 whole entry): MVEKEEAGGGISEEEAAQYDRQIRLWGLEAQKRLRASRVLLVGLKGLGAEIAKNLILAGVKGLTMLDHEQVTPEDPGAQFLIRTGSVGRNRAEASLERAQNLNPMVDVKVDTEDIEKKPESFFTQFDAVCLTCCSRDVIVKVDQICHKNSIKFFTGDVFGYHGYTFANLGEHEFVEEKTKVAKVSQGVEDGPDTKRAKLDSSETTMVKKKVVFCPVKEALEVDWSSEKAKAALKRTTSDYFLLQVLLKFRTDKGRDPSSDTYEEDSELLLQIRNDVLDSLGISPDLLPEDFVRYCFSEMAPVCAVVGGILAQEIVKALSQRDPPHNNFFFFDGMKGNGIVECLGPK
T5 sequence (Q9UBT2 whole entry): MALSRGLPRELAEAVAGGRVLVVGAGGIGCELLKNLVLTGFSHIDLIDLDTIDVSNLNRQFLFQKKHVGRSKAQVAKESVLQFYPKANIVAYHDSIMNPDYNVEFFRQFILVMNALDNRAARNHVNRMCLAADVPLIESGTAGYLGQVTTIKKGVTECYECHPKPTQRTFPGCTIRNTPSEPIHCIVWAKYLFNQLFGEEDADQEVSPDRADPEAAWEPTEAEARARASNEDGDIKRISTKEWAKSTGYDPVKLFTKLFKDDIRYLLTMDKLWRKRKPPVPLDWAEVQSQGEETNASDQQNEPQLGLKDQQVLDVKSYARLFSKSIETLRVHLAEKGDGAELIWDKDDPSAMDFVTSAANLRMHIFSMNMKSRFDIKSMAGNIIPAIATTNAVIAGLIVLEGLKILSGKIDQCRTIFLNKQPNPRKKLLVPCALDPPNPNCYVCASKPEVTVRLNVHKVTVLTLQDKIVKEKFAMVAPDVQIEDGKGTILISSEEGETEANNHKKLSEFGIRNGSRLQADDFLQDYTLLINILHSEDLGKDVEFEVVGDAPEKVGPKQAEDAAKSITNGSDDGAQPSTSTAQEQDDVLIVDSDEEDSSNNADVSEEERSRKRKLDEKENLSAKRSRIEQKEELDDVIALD
For a further test, the target named is T6, Bcl-2-related protein A1 (Mus musculus, UniProt Q07440).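 Note: confirmatory dose–response counterscreen on Bfl-1, used to check hits from a UBC13 polyubiquitin inhibitor campaign.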
T6 sequence (Q07440 whole entry): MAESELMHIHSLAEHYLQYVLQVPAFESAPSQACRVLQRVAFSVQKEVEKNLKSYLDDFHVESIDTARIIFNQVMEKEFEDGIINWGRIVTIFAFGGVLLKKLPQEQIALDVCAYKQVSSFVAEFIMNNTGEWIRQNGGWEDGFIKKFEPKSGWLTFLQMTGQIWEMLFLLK
In kind it is functional.

Test [9] in a line: viability loss in HeLa cells – cytotoxicity control for MgcRacGAP inhibitor project, dose response (AID 624300). In kind it is functional.
For test [10], the target named is T4, Ubiquitin-conjugating enzyme E2 N. The test is classed as functional. This is another data set of the same source.
The target in test [11] is T5, SUMO-activating enzyme. Put plainly: blockers of UBC9-mediated SUMO conjugation – biochemical, AlphaScreen, SUMOylation inhibitor project, confirmation (AID 2018). In kind it is functional. (Alpha assays give light when donor and acceptor beads are brought close together.)
The target of the next test is Prothrombin (Bos taurus, UniProt P00735). Put plainly: thrombin protease inhibitors – biochemical, fluorescence polarization, uHTS hits, dose response (AID 602369). The test is classed as functional.
The target of test [12] is T2, Apoptotic protease-activating factor 1. In kind it is functional.
The target in test [13] is Cyclin-dependent kinase 19 (Homo sapiens, UniProt Q9BWU1). Put plainly: Navigating the Kinome. Panel member name: CDC2L6. In kind it is functional.
Sequence of Cyclin-dependent kinase 19 (Q9BWU1 whole entry): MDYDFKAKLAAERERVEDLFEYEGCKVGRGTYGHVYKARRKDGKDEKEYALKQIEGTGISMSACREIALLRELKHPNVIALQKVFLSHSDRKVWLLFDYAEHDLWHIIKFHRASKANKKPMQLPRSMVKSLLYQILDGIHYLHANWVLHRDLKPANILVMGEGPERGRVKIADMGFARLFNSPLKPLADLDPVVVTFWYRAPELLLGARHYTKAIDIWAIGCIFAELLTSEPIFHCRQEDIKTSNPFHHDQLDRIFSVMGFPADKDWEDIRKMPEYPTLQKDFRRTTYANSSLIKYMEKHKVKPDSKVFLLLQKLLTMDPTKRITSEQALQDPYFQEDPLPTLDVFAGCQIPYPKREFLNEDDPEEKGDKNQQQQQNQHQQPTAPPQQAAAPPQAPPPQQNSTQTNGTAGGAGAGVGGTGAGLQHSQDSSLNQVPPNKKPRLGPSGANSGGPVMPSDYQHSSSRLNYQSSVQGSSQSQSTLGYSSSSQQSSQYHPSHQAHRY
Test [14] has as its target Cell division cycle 7-related protein kinase (Homo sapiens, UniProt O00311). The test is classed as functional.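 Note: value obtained from a kinome-wide kinase panel.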
Test [15] concerns the target Glycogen synthase kinase-3 beta (Homo sapiens, UniProt P49841). As to the kind of experiment: inhibition of human GSK3B activity – biochemical, microfluidics, dry powder samples, set 2, dose response (AID 623989). The test is classed as functional.
Test [16] addresses Glycogen synthase kinase-3 alpha (Homo sapiens, UniProt P49840). As to the kind of experiment: GSK3A enzyme blockers, homolog specificity check – biochemical, microfluidics, dry powder samples, set 2, selectivity assay for GSK3beta inhibitor project, dose response (AID 623978). In kind it is functional.

Sequence of 26S proteasome non-ATPase regulatory subunit 14 (O00487 whole entry): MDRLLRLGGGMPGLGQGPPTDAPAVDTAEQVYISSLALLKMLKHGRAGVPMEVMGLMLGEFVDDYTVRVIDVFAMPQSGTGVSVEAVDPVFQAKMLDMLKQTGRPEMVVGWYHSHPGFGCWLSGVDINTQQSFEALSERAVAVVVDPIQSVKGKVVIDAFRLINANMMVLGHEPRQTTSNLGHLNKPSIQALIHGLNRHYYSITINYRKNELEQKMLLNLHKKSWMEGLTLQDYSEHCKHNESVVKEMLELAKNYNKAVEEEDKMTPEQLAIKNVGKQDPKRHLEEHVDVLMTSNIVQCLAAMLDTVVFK
Sequence of Cell division cycle 7-related protein kinase (O00311 whole entry): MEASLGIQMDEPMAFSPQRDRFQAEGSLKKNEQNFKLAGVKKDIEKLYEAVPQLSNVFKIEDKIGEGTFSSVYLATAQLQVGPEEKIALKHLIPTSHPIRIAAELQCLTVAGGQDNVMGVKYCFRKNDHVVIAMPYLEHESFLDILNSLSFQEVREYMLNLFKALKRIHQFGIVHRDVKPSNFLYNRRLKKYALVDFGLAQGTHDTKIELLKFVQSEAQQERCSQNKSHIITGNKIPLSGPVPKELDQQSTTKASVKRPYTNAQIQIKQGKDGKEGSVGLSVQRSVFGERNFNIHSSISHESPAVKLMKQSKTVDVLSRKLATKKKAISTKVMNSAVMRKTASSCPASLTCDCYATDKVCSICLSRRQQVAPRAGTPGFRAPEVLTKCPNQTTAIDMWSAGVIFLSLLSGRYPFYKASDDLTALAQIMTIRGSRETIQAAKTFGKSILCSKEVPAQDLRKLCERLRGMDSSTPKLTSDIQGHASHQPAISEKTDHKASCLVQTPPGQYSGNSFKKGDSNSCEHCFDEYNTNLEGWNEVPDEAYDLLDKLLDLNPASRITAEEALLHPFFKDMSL
Sequence of Glycogen synthase kinase-3 beta (P49841 whole entry): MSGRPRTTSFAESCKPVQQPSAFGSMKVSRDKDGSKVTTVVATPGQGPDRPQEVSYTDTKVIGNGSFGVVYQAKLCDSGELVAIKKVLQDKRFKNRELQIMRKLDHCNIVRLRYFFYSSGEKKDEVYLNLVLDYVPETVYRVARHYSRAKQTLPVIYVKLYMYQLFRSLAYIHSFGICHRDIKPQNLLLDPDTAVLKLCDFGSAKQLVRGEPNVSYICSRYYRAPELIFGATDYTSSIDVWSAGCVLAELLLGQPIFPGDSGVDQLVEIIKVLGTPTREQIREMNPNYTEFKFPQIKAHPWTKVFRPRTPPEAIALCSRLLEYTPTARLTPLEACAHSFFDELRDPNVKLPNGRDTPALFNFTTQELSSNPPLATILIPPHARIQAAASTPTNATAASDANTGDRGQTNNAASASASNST
Sequence of 72 kDa type IV collagenase (P08253 whole entry): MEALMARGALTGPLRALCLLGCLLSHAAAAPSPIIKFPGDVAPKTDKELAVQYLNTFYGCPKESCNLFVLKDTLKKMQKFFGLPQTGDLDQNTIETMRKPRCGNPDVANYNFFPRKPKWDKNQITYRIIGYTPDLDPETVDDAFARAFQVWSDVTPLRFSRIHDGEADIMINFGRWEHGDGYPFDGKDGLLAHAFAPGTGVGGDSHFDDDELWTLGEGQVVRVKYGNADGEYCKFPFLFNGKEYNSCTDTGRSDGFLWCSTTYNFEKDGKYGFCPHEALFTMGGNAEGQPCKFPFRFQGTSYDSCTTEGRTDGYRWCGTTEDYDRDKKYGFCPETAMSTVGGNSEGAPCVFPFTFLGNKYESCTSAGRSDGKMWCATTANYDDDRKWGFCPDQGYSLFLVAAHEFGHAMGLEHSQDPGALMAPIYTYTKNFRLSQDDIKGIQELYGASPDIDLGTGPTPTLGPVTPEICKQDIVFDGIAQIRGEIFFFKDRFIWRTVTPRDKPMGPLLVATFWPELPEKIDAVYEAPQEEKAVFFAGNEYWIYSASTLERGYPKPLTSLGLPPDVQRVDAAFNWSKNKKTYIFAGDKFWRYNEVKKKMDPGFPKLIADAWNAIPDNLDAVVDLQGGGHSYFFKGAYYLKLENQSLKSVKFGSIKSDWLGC
Sequence of Glycogen synthase kinase-3 alpha (P49840 whole entry): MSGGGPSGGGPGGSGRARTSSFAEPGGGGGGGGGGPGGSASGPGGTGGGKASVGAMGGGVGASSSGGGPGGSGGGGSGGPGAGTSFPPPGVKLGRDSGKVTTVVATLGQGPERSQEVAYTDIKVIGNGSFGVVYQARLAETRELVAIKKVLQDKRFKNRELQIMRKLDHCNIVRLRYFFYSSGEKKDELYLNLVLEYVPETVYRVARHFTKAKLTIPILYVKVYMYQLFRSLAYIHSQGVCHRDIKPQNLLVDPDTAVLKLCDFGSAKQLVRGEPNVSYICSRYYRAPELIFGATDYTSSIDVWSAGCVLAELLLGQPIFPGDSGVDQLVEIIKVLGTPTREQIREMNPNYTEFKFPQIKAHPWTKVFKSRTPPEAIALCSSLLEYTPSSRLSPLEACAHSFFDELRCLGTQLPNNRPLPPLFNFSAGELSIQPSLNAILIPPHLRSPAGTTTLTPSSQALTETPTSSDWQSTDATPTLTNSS

Usually AC50 stands for the concentration at which the activity in the assay is half-maximal. In general, CC50 refers to the concentration at which the toxic effect on the cells reaches its halfway point. For the molecule `CCN(CC)CCOC(=O)c1ccc(N/C=C(/C#N)c2nc(-c3ccc(OC)c(OC)c3)cs2)cc1`, the IC50 in test [1] was 23.2 µM (active); in test [3] it was > 20 µM (inactive); in [4] it was 3.93 µM (active); in test [5], 32.4 µM (active); in [6] it was > 100 µM (inactive); in test [7], 3.76 µM (active). Moreover, the IC50 at SUMO-activating enzyme [8] is 11.7 µM (active); on Bcl-2-related protein A1 it was 3.44 µM (active); in test [10] it was 3.02 µM (active); at SUMO-activating enzyme [11], 7.12 µM (active); on Prothrombin, 28.7 µM (active); in test [12], 4.09 µM (active). Moreover, the AC50 in test [2] was 10.9 µM (active). In addition, in test [9], the CC50 was 92.3 µM (active).

Usually Ki stands for the equilibrium dissociation constant of an inhibitor or competing ligand from its target. `CN(C)CCNC(=O)c1ccc(-c2ccnc(Nc3cccc(F)c3)n2)cc1`: the Ki in [13] is 31.6 µM (active); in [14], 0.251 µM (active).

As to `COC(=O)c1ccc(CSc2ccc3nnc(-c4ccc(F)cc4)n3n2)o1`, the AC50 was 0.509 µM (active) in [15] and 1.87 µM (active) in [16].
